The results in this text go back to publication PMC12811997 (Chemmedchem, 2025).

Data set [1] deals with SARS‐CoV‐2 RdRp complex (nsp12, nsp7, nsp8) (Severe acute respiratory syndrome coronavirus 2, UniProt P0DTD1). Kind of data set: biochemical. It is filed as biochemical. Particulars: for remaining activity at 10 µM: read-out: RA ± SD (residual activity of RdRp), at 10 μM concentration of screened compounds, AUC with compound / AUC of noninhibited reaction.
The nature of another data set: Kinetic solubility. The note with it: for kinetic solubility: as restated in Conclusions.
The test system of another data set is SARS‐CoV‐2. Kind of data set: microbe, parasite or virus in culture. Particulars: Severe acute respiratory syndrome coronavirus 2; Calu‐3 cells infected with SARS‐CoV‐2; concentration required to reduce viral cytopathic effect by 50%; read-out: EC50. It is filed as cell-based. (Damage to the host cells serves as the signal in cytopathic effect assays.)
A further data set in a line: in vitro. Particulars: human.

SMILES strings stand for the structures. Converted amounts (≈) assume the structure as drawn. Where a name gives a salt, the structure may show the parent alone. Read-outs that look alike come from different tables or passages of the source.

Experimental for in vitro: Cytotoxicity was evaluated by incubating the same two‐fold serial dilutions of each compound with Calu‐3 cells as above but without the virus. Following 3 days of incubation at 37 °C in 5% CO2, the cell viability was determined by the addition of XTT solution as above. The compound cytotoxic concentrations resulting in a 50% reduction of absorbance (CC50) were calculated from plots of the percentage of absorbance versus log10 of drug concentration as above.

In the case of `O=C(Nc1cc(Cl)cc(Cl)c1)Nc1ccc(CNCCO)c(C(F)(F)F)c1` [Compound 59, 1‐(3,5‐Dichlorophenyl)‐3‐(4‐(((2‐Hydroxyethyl)Amino)Methyl)‐3‐(Trifluoromethyl)Phenyl)Urea Hydrochloride], in data set [1], the remaining activity at 10 µM was determined as 76 ± 11%.

One may read the solubility (kinetic) as the concentration staying in solution when a stock, usually in DMSO, is diluted into the medium. Usually EC50 stands for the concentration that produces a half-maximal response. In the case of `Cl.O=C(Nc1cc(Cl)cc(Cl)c1)Nc1ccc(CN2CCS(=O)(=O)CC2)c(C(F)(F)F)c1` [Compound 68, 1‐(3,5‐Dichlorophenyl)‐3‐(4‐((1,1‐Dioxidothiomorpholino)Methyl)‐3‐(Trifluoromethyl)Phenyl)Urea Hydrochloride], the kinetic solubility in “Kinetic solubility” (kinetic from dmso stock) turned out to be 2.57 ± 0.04 µM. The EC50 with SARS‐CoV‐2 is over 5.9 µM. In the data set “in vitro”, the CC50 at 3 days is 5.9 ± 0.51 µM. In data set [1], the remaining activity at 10 µM came to 37 ± 5%.

On to `Cl.O=C(Nc1cc(Cl)cc(Cl)c1)Nc1ccc(C(F)(F)F)c(CN2CCCC2)c1` [Compound 46, 1‐(3,5‐Dichlorophenyl)‐3‐(3‐(Pyrrolidin‐1‐Ylmethyl)‐4‐(Trifluoromethyl)Phenyl)Urea Hydrochloride], for which the kinetic solubility in “Kinetic solubility” (kinetic from dmso stock) worked out at 11.9 ± 0.4 µM. The EC50 in the data set with SARS‐CoV‐2 was over 15 µM. The compound further came in with a CC50 at 3 days in the data set “in vitro” of about 15 µM. For the same compound, the remaining activity at 10 µM in data set [1] came out at 67 ± 7%.

`NCc1ccc(NC(=O)Nc2cc(Cl)cc(Cl)c2)cc1C(F)(F)F` [Compound 41, 1‐(4‐(Aminomethyl)‐3‐(Trifluoromethyl)Phenyl)‐3‐(3,5‐Dichlorophenyl)Urea Hydrochloride]: the remaining activity at 10 µM in data set [1] stood at 78 ± 5%.

On to `COCCNCc1ccc(NC(=O)Nc2cc(Cl)cc(Cl)c2)cc1C(F)(F)F` [Compound 58, 1‐(3,5‐Dichlorophenyl)‐3‐(4‐(((2‐Methoxyethyl)Amino)Methyl)‐3‐(Trifluoromethyl)Phenyl)Urea Hydrochloride], for which the remaining activity at 10 µM in data set [1] is 100%.

In the data set “Kinetic solubility”, `O=C(Nc1cccc(C(F)(F)F)c1)Nc1ccc(Cl)cc1Cl` [Compound 9, 1‐(2,4‐Dichlorophenyl)‐3‐(3‐(Trifluoromethyl)Phenyl)Urea] yielded a solubility (kinetic) of under 2 µM. Besides, the EC50 with SARS‐CoV‐2 was over 6.9 µM. Also, the CC50 at 3 days in the data set “in vitro” stood at 6.9 ± 0.94 µM. The remaining activity at 10 µM in data set [1] was 64 ± 12%.

For `COC(=O)CNCc1ccc(NC(=O)Nc2cc(Cl)cc(Cl)c2)cc1C(F)(F)F.Cl` [Compound 61, Methyl (4‐(3‐(3,5‐Dichlorophenyl)Ureido)‐2‐(Trifluoromethyl)Benzyl)Glycinate Hydrochloride], the kinetic solubility in the data set “Kinetic solubility” was determined as 21 µM L^−1. For the same compound, the kinetic solubility in the data set “Kinetic solubility” (kinetic from dmso stock) worked out at 7 ± 0.6 µM. The “increase in kinetic solubility compared with compound 39” value in the data set “Kinetic solubility” (relative to compound 39) came out at 1.7 fold. Moreover, the EC50 with SARS‐CoV‐2 is over 8.4 µM. The compound further displayed a CC50 at 3 days in the data set “in vitro” of 8.4 ± 0.46 µM. Besides, the remaining activity at 10 µM in data set [1] stood at 43 ± 8%.

`O=C(Nc1cnc(C(F)(F)F)nc1)Nc1cc(Cl)cc(Cl)c1` [Compound 18, 1‐(3,5‐Dichlorophenyl)‐3‐(2‐(Trifluoromethyl)Pyrimid‐5‐Yl)Urea] returned a kinetic solubility in “Kinetic solubility” of 27 µM/L. Further, the kinetic solubility in “Kinetic solubility” (kinetic from dmso stock) was 27 ± 6 µM (≈ 9.48 µg/mL). For the same compound, in the data set on SARS‐CoV‐2, the EC50 is over 1.1 µM. Further, the CC50 at 3 days in the data set “in vitro” stood at 1.1 ± 0.11 µM. Moreover, in data set [1], the “effect in combination with remdesivir” value was “potentiates the effect of remdesivir” and the remaining activity at 10 µM was 42 ± 10%. For the same compound, the mode of inhibition result in data set [1] (versus ATP, enzymatic study) is reported as “competitive inhibitor of ATP”.

As for `O=C(Nc1cc(Cl)cc(Cl)c1)Nc1ccccc1C(F)(F)F` [Compound 14, 1‐(3,5‐Dichlorophenyl)‐3‐(2‐(Trifluoromethyl)Phenyl)Urea], in data set [1], the remaining activity at 10 µM was 100%.

With `CN1CCN(Cc2cc(NC(=O)Nc3cc(Cl)cc(Cl)c3)ccc2C(F)(F)F)CC1` [Compound 48, 1‐(3,5‐Dichlorophenyl)‐3‐(3‐((4‐Methylpiperazin‐1‐Yl)Methyl)‐4‐(Trifluoromethyl)Phenyl)Urea Hydrochloride], the remaining activity at 10 µM in data set [1] was determined as 100%.

As to `O=C(Nc1cccc(C(F)(F)F)c1)Nc1c(Cl)cccc1Cl` [Compound 10, 1‐(2,6‐Dichlorophenyl)‐3‐(3‐(Trifluoromethyl)Phenyl)Urea], the remaining activity at 10 µM in data set [1] was found to be 100%.

For `O=C(O)CNCc1ccc(NC(=O)Nc2cc(Cl)cc(Cl)c2)cc1C(F)(F)F` [Compound 62, Lithium (4‐(3‐(3,5‐Dichlorophenyl)Ureido)‐2‐(Trifluoromethyl)Benzyl)Glycinate], in data set [1], the remaining activity at 10 µM turned out to be 70 ± 10%.

Compound `NC(=O)c1ccc(NC(=O)Nc2cc(Cl)cc(Cl)c2)cc1C(F)(F)F` [Compound 24, 4‐(3‐(3,5‐Dichlorophenyl)Ureido)‐2‐(Trifluoromethyl)Benzamide] yielded a kinetic solubility in “Kinetic solubility” of 32.5 µM L^−1. The compound further registered a solubility (kinetic) in “Kinetic solubility” (kinetic from dmso stock) of 32.5 ± 0.8 µM (≈ 12.7 µg/mL). Further, the EC50 in the data set on SARS‐CoV‐2 was over 14 µM. This compound also registered a CC50 at 3 days in “in vitro” of 14 ± 1 µM. In addition, the remaining activity at 10 µM in data set [1] was about 65%.

As for `Cl.O=C(Nc1cc(Cl)cc(Cl)c1)Nc1ccc(CN2CCCC2)c(C(F)(F)F)c1` [Compound 38, 1‐(3,5‐Dichlorophenyl)‐3‐(4‐(Pyrrolidin‐1‐Ylmethyl)‐3‐(Trifluoromethyl)Phenyl)Urea Hydrochloride], the solubility (kinetic) in “Kinetic solubility” (kinetic from dmso stock) is under 2 µM. Moreover, the EC50 with SARS‐CoV‐2 was over 19 µM. Moreover, the CC50 at 3 days in the data set “in vitro” amounted to 19 ± 1 µM. The remaining activity at 10 µM in data set [1] was 46 ± 2%.

In the data set “Kinetic solubility” (kinetic from dmso stock), `Cl.O=C(Nc1cc(Cl)cc(Cl)c1)Nc1ccc(C(F)(F)F)c(CN2CCOCC2)c1` [Compound 47, 1‐(3,5‐Dichlorophenyl)‐3‐(3‐(Morpholinomethyl)‐4‐(Trifluoromethyl)Phenyl)Urea Hydrochloride] came in with a solubility (kinetic) of under 2 µM. In the data set on SARS‐CoV‐2, the EC50 is over 5.3 µM. The compound also came in with a CC50 at 3 days in the data set “in vitro” of 5.3 ± 0.48 µM. Besides, the remaining activity at 10 µM in data set [1] turned out to be 65 ± 5%.

As for `NC(=O)c1ccc(C(F)(F)F)cc1NC(=O)Nc1cc(Cl)cc(Cl)c1` [Compound 25, 2‐(3‐(3,5‐Dichlorophenyl)Ureido)‐4‐(Trifluoromethyl)Benzamide], the remaining activity at 10 µM in data set [1] turned out to be 100%.

As to `CN1CCN(Cc2c(Cl)cc(NC(=O)Nc3cccc(C(F)(F)F)c3)cc2Cl)CC1` [Compound 54, 1‐(3,5‐Dichloro‐4‐((4‐Methylpiperazin‐1‐Yl)Methyl)Phenyl)‐3‐(3‐(Trifluoromethyl)Phenyl)Urea Hydrochloride], the remaining activity at 10 µM in data set [1] was determined as 79 ± 5%.

As to `O=C(Nc1ccc(C(F)(F)F)nc1)Nc1cc(Cl)cc(Cl)c1` [Compound 15, 1‐(3,5‐Dichlorophenyl)‐3‐(6‐(Trifluoromethyl)Pyridin‐3‐Yl)Urea], in the data set on SARS‐CoV‐2, the EC50 was over 1.3 µM. In the data set “in vitro”, this compound registered a CC50 at 3 days of 1.3 ± 0.13 µM. The remaining activity at 10 µM in data set [1] is 35 ± 9%.

As to `O=C(Nc1cc(Cl)cc(Cl)c1)Nc1cnc(C(F)(F)F)cn1` [Compound 19, 1‐(3,5‐Dichlorophenyl)‐3‐(5‐(Trifluoromethyl)Pyrazin‐2‐Yl)Urea], the remaining activity at 10 µM in data set [1] turned out to be 75 ± 8%.

For `NC(=O)c1c(Cl)cc(Cl)cc1NC(=O)Nc1cccc(C(F)(F)F)c1` [Compound 28, 2,4‐Dichloro‐6‐(3‐(3‐(Trifluoromethyl)Phenyl)Ureido)Benzamide], the remaining activity at 10 µM in data set [1] is 100%.

Take `O=C(Nc1cc(Cl)cc(Cl)c1)Nc1ccc(C(F)(F)F)nn1` [Compound 17, 1‐(3,5‐Dichlorophenyl)‐3‐(6‐(Trifluoromethyl)Pyridazin‐3‐Yl)Urea]: the remaining activity at 10 µM in data set [1] was 68 ± 9%.

Take `O=C(Nc1cc(Cl)cc(Cl)c1)Nc1ccc(C(F)(F)F)cn1` [Compound 16, 1‐(3,5‐Dichlorophenyl)‐3‐(5‐(Trifluoromethyl)Pyridin‐2‐Yl)Urea]: in data set [1], the remaining activity at 10 µM is 100%.
